How the values were obtained:
Assay type in all cases: functional, cell-based
Details in all cases: Homo sapiens
DU-145 [1] = assay: The concentration levels of putrescine (PU) evaluated in DU145 cells treated with the compound concentration of 0.02 uM on first day of treatment.
DU-145 [2] = assay: The concentration levels of spermine (SP) evaluated in DU145 cells treated with the compound concentration of 0.02 uM on third day of treatment.
DU-145 [3] = assay: The concentration levels of putrescine (PU) evaluated in DU145 cells treated with the compound concentration of 0.02 uM on third day of treatment.
DU-145 [4] = assay: The concentration levels of analogue evaluated in DU145 cells treated with the compound concentration of 0.02 uM on third day of treatment.
DU-145 [5] = assay: The concentration levels of analogue evaluated in DU145 cells treated with the compound concentration of 2 uM on third day of treatment.
DU-145 [6] = assay: The concentration levels of spermidine (SD), evaluated in DU145 cells treated with the compound concentration of 2 uM on first day of treatment.
DU-145 [7] = assay: The concentration levels of putrescine (PU) evaluated in DU145 cells treated with the compound concentration of 2 uM on first day of treatment.
DU-145 [8] = assay: The concentration levels of spermine (SP), evaluated in DU145 cells treated with the compound concentration of 0.02 uM on first day of treatment.
DU-145 [9] = assay: The concentration levels of spermine (SP) evaluated in DU145 cells treated with the compound concentration of 2 uM on third day of treatment.
DU-145 [10] = assay: The concentration levels of analogue evaluated in DU145 cells treated with the compound concentration of 2 uM on first day of treatment.
DU-145 [11] = assay: The concentration levels of spermidine (SD) evaluated in DU145 cells treated with the compound concentration of 2 uM on third day of treatment.
DU-145 [12] = assay: The concentration levels of putrescine (PU) evaluated in DU145 cells treated with the compound concentration of 2 uM on third day of treatment.
DU-145 [13] = assay: The concentration levels of analogue evaluated in DU145 cells treated with the compound concentration of 0.02 uM on first day of treatment.
DU-145 [14] = assay: The concentration levels of spermidine (SD) evaluated in DU145 cells treated with the compound concentration of 0.02 uM on third day of treatment.
DU-145 [15] = assay: The concentration levels of spermine (SP), evaluated in DU145 cells treated with the compound concentration of 2 uM on first day of treatment.
DU-145 [16] = assay: The concentration levels of spermidine (SD), evaluated in DU145 cells treated with the compound concentration of 0.02 uM on first day of treatment.
DU-145 [17] = assay: The concentration levels of putrescine (PU) evaluated in DU145 cells treated with the compound concentration of 2 uM on first day of treatment; Not quanitfiable
DU-145 [18] = assay: The concentration levels of spermidine (SD) evaluated in DU145 cells treated with the compound concentration of 2 uM on third day of treatment; Not quantifiable
DU-145 [19] = assay: The concentration levels of putrescine (PU) evaluated in DU145 cells treated with the compound concentration of 2 uM on third day of treatment; Not quantifiable

## CCNCCCNCC1CC1CNCCCNCC (stereo in doubt; 5)
DU-145 [1]
  Concentration (nM (10e6*cells)-1): 0.2
DU-145 [2]
  Concentration (nM (10e6*cells)-1): 2.73
DU-145 [3]
  Concentration (nM (10e6*cells)-1): 0.08
DU-145 [4]
  Concentration (nM (10e6*cells)-1): 0.06
DU-145 [5]
  Concentration (nM (10e6*cells)-1): 0.18
DU-145 [6]
  Concentration (nM (10e6*cells)-1): 2.63
DU-145 [7]
  Concentration (nM (10e6*cells)-1): 0.55
DU-145 [8]
  Concentration (nM (10e6*cells)-1): 2.48
DU-145 [9]
  Concentration (nM (10e6*cells)-1): 2.28
DU-145 [10]
  Concentration (nM (10e6*cells)-1): 0.33
DU-145 [11]
  Concentration (nM (10e6*cells)-1): 1.38
DU-145 [12]
  Concentration (nM (10e6*cells)-1): 0.05
DU-145 [13]
  Concentration (nM (10e6*cells)-1): 0.14
DU-145 [14]
  Concentration (nM (10e6*cells)-1): 1.41
DU-145 [15]
  Concentration (nM (10e6*cells)-1): 2.64
DU-145 [16]
  Concentration (nM (10e6*cells)-1): 1.92

## CCNCCCNCC1CC1CNCCCNCC (stereo in doubt; 9)
DU-145 [17]
  Concentration: Not quantifiable
DU-145 [1]
  Concentration (nM (10e6*cells)-1): 0.18
DU-145 [2]
  Concentration (nM (10e6*cells)-1): 1.97
DU-145 [3]
  Concentration (nM (10e6*cells)-1): 0.05
DU-145 [4]
  Concentration (nM (10e6*cells)-1): 0.15
DU-145 [18]
  Concentration: Not quantifiable
DU-145 [5]
  Concentration (nM (10e6*cells)-1): 3.97
DU-145 [6]
  Concentration (nM (10e6*cells)-1): 0.1
DU-145 [8]
  Concentration (nM (10e6*cells)-1): 2.16
DU-145 [9]
  Concentration (nM (10e6*cells)-1): 0.06
DU-145 [10]
  Concentration (nM (10e6*cells)-1): 4.08
DU-145 [13]
  Concentration (nM (10e6*cells)-1): 0.9
DU-145 [14]
  Concentration (nM (10e6*cells)-1): 1.01
DU-145 [15]
  Concentration (nM (10e6*cells)-1): 0.4
DU-145 [19]
  Concentration: Not quantifiable
DU-145 [16]
  Concentration (nM (10e6*cells)-1): 1.64

Reference: ChEMBL document CHEMBL1131189, “Conformationally restricted analogues of 1N,12N-bisethylspermine: synthesis and growth inhibitory effects on human tumor cell lines” (1998)
